The values below come from the SangsterLogP compilation.

Molecules are shown by their SMILES.

The nature of data set [1]: method code SF-HPLC, from DOI: 10.1002/jps.2600830805, PMID: 7983590. Conditions: pH 12.2.
The nature of data set [2]: method code SF, from DOI: 10.3139/113.110173.

Turning to `CCCCC(NC(C)=O)C(=O)NC1NCCCCC(C(N)=O)NC(=O)C(Cc2c[nH]c3ccccc23)NC(=O)C(CCCC(=N)N)NC(=O)C(Cc2ccccc2)NC(=O)C(Cc2cnc[nH]2)NC1=O` (configuration not stated), in data set [1], the logD came out at 1.1.

With `CCCCCCCCCCCOCCOCCOCCOCCOCCOCCOCCOCCOCCOCCOCCOCCOCCOCCOCCOCCOCCOCCOCCOCCOCCOCCOCCOCCOCCOCCOCCOCCO`, in data set [2], the logP amounted to 0.31.
